# Reference: patent publication US7960415B2, “Caspase inhibitors and uses thereof” (Vertex Pharmaceutical Incoporated, priority 2003, dated 2011)
# Experiments:
# [1] = system: IL-1β secretion from human whole blood; assay: Inhibition of IL-1β secretion from whole blood; type: cell-based; conditions: human whole blood diluted 1:2, LPS 5 ng/ml, 18 hours, ELISA
# Experimental: Human blood is freshly drawn from healthy donors and diluted 1:2 in PBS. To 500 μl of diluted blood […] of prediluted test compound in RPMI medium and […] LPS (5 ng/ml final concentration on the plate) are added (LPS, Serotype 0111:B4, Sigma L3012). After stimulation for 18 hours supernatants are collected and assayed for IL-1β levels using the appropriate ELISA kit (R&D systems).
# rat cortical neurons = assay: Hypoxia-induced apoptosis of rat cortical neurons; type: cell-based, Wistar rat; conditions: Cortical neurone, 95% N2/5% CO2, Cell Death Detection ELISA (DNA fragmentation)
# Experimental: Cortical neurons are dissociated from Wistar rat embryos (E17) by a modification of the procedure of Rogers et al. 1997, Brain Res. Bulletin, 44:131. Briefly, cerebral cortices are isolated aseptically from 15-20 Wistar rat embryos. A cell suspension is prepared by mincing the cerebral cortices and digesting them with papain. Cells are washed with ovomucoid enzyme inhibitor and DNaseI and plated onto Poly-D lysine coated plates in high glucose DMEM containing 10% heat-inactivated fetal calf serum, L-glutamine, penicillin and streptomycin. The yield of neurons is […] per embryo and they are 80-90% viable as assessed by Trypan blue exclusion.
# The neurons are cultured in complete medium at 37° C. in a normal atmosphere for 48 hours prior to the hypoxia experiments. For hypoxia, the normal cell medium is replaced by oxygen-depleted serum-free medium. Cells are incubated in an atmosphere of 95% N2/5% CO2 for various lengths of time. Compounds are dissolved in DMSO at 100 mM then diluted in medium and added to the culture from time=0. The level of apoptosis is measured using a Cell Death Detection ELISA kit (Roche) which detects DNA fragmentation. Plates are read at 405 nm. Controls included cells cultured in aerobic conditions in serum-containing medium (+serum) and cells cultured in aerobic conditions in serum-deprived medium (−serum).
# Jurkat E6.1 cells = assay: Anti-Fas induced apoptosis assay; type: cell-based; conditions: Homo sapiens, anti-Fas antibody CH-11 10 ng/ml, 16-18 hrs, DNA fragmentation
# Excerpt: Cellular apoptosis may be induced by the binding of Fas ligand (FasL) to its receptor, CD95 (Fas). CD95 is one of a family of related receptors, known as death receptors, which can trigger apoptosis in cells via activation of the caspase enzyme cascade. The process is initiated by the binding of the adapter molecule FADD/MORT-1 to the cytoplasmic domain of the CD-95 receptor-ligand complex. Caspase-8 then binds FADD and becomes activated, initiating a cascade of events that involve the activation of downstream caspases and subsequent cellular apoptosis. Apoptosis can also be induced in cells expressing CD95 e.g., the Jurkat E6.1 T cell lymphoma cell line, using an antibody, rather than FasL, to crosslink the cell surface CD95. Anti-Fas-induced apoptosis is also triggered via the activation of caspase-8. This provides the basis of a cell based assay to screen compounds for inhibition of the caspase-8-mediated apoptotic pathway.
# Jurkat E6.1 cells are cultured in complete medium consisting of RPMI-1640 (Sigma No)+10% foetal calf serum (Gibco BRL No. 10099-141)+2 mM L-glutamine (Sigma No. G-7513). The cells are harvested in log phase of growth. 100 ml of cells at 5-8×10^5 cells/ml are transferred to sterile 50 ml Falcon centrifuge tubes and centrifuged for 5 minutes at 100×g at room temperature. The supernatant is removed and the combined cell pellets resuspended in 25 ml of complete medium. The cells are counted and the density adjusted to 2×10^6 cells/ml with complete medium.
# The test compound is dissolved in dimethyl sulfoxide (DMSO)(Sigma No. D-2650) to give a 100 mM stock solution. This is diluted to 400 μM in complete medium, then serially diluted in a 96-well plate prior to addition to the cell assay plate.
# 100 μl of the cell suspension ([…]) is added to each well of a sterile 96-well round-bottomed cluster plate (Costar No. 3790). 50 μl of compound solution at the appropriate dilution and 50 μl of anti-Fas antibody, clone CH-11 (Upstate, Cat No. 1 544 675) at a final concentration of 10 ng/ml, are added to the wells. Control wells are set up minus antibody and minus compound but with a serial dilution of DMSO as vehicle control. The plates are incubated for 16-18 hrs at 37° C. in 5% CO2 and 95% humidity.
# Apoptosis of the cells is measured by the quantitation of DNA fragmentation using a ‘Cell Death Detection Assay’ from Roche diagnostics, No. 1544 675. After incubation for 16-18 hrs the assay plates are centrifuged at 100×g at room temperature for 5 minutes. 150 μl of the supernatant are removed and replaced by 150 μl of fresh complete medium. The cells are then harvested and 200 μl of the lysis buffer supplied in the assay kit are added to each well. The cells are triturated to ensure complete lysis and incubated for 30 minutes at 4° C. The plates are then centrifuged at 1900×g for 10 minutes and the supernatants diluted 1:20 in the incubation buffer provided. 100 μl of this solution is then assayed according to the manufacturer's instructions supplied with the kit. OD405 nm is measured 20 minutes after addition of the final substrate in a SPECTRAmax Plus plate reader (Molecular Devices). OD405 nm is plotted versus compound concentration and the IC50 values for the compounds are calculated using the curve-fitting program SOFTmax Pro (Molecular Devices) using the four parameter fit option.
SMILES,IC50 [1] [nM],IC50 (Jurkat E6.1 cells) [nM],IC50 (rat cortical neurons) [nM]
"CC[C@@H](C(=O)N[C@@H](CC(=O)O)C(=O)COc1c(F)c(F)cc(F)c1F)n1cccc(NS(=O)(=O)CC)c1=O [Compound 18, (S,S)-3-[2-(3-Ethanesulfonylamino-2-oxo-2H-pyridin-1-yl)-butyrylamino]-4-oxo-5-(2,3,5,6-tetrafluoro-phenoxy)-pentanoic acid]",500 to 5000,< 500,1000 to 10000
"CCCS(=O)(=O)Nc1cccn([C@@H](CC)C(=O)N[C@@H](CC(=O)O)C(=O)COc2c(F)c(F)cc(F)c2F)c1=O [Compound 19, (S,S)-4-Oxo-3-{2-[2-oxo-3-(propane-1-sulfonylamino)-2H-pyridin-1-yl]-butyrylamino}-5-(2,3,5,6-tetrafluoro-phenoxy)-pentanoic acid]",500 to 5000,< 500,1000 to 10000
"CCC(=O)Nc1cccn([C@@H](CC(C)C)C(=O)NC(CC(=O)O)C(=O)CF)c1=O (stereo partly drawn) [Compound 36, (S)-5-Fluoro-3-[4-methyl-2-(2-oxo-3-propionylamino-2H-pyridin-1-yl)-pentanoylamino]-4-oxo-pentanoic acid]",500 to 5000,500 to 2000,1000 to 10000

# Second part, led by results:
IC50 [1] [nM],IC50 (Jurkat E6.1 cells) [nM],SMILES,IC50 (rat cortical neurons) [nM]
500 to 5000,< 500,"CC[C@@H](C(=O)N[C@@H](CC(=O)O)C(=O)COc1c(F)c(F)cc(F)c1F)n1cc(C(F)(F)F)cc(NS(=O)(=O)CC)c1=O [Compound 22, (S,S)-3-[2-(3-Ethanesulfonylamino-2-oxo-5-trifluoromethyl-2H-pyridin-1-yl)-butyrylamino]-4-oxo-5-(2,3,5,6-tetrafluoro-phenoxy)-pentanoic acid]",< 1000
< 500,< 500,"CCC(=O)Nc1cccn([C@@H](CC)C(=O)NC(CC(=O)O)C(=O)CF)c1=O (stereo partly drawn) [Compound 29, (S)-5-Fluoro-4-oxo-3-[2-(2-oxo-3-propionylamino-2H-pyridin-1-yl)-butyrylamino]-pentanoic acid]",1000 to 10000
